These compounds were tested against T1, NLRP3 (Homo sapiens, UniProt Q96P20) (assay: IL-1β Secretion Assay (NLRP3-dependent IL1β secretion in THP1 cells)). Details: PMA-differentiated THP-1 cells; compounds incubated 20 h; 2.5 μM Nigericin 3 h; HTRF IL-1β readout; read-out: IC50 IL-1β Inhibition.
T1 construct: host or cells: THP-1 cells differentiated with PMA
Format: cell-based
Outline: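 THP-1 cells differentiated with 100 ng/mL PMA for 24 h, then given compound (7-point 3-fold series, 1:200 from DMSO) for 20 h in RPMI+5% FBS. NLRP3 activated with 2.5 μM nigericin for 3 h; secreted IL-1β measured by HTRF; IC50 from logistic fit of % inhibition.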

T1 sequence (Q96P20 whole entry): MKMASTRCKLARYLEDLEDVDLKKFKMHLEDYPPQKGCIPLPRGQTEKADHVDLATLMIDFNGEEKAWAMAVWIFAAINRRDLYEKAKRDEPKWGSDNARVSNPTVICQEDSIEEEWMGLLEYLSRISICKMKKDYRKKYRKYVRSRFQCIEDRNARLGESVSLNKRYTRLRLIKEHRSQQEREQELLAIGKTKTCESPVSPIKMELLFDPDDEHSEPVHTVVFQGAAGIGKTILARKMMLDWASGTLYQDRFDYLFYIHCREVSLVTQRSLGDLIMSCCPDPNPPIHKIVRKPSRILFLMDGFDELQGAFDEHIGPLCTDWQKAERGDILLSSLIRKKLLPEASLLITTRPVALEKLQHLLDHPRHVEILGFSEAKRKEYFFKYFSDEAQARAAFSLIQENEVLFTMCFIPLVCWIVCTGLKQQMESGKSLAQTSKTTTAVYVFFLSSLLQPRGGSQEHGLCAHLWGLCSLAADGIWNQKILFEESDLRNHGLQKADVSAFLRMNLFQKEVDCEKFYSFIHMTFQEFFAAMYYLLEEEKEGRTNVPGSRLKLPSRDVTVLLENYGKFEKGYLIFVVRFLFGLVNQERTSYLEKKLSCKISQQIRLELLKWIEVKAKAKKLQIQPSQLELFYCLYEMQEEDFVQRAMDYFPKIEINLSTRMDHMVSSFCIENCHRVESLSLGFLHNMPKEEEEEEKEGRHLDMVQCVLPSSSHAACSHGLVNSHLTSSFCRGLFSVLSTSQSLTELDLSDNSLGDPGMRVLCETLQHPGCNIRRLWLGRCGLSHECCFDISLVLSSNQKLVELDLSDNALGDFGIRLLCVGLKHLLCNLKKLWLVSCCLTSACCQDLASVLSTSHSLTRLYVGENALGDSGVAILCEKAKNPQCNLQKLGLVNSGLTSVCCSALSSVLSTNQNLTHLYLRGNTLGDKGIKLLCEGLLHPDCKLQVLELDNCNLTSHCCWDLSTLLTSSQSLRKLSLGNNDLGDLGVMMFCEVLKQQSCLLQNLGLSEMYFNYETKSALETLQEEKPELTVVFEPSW

SMILES | IC50 [nM]
COc1ccc(-c2nnc(NC3CCNC3=O)n3ccc(F)c23)c(C(F)(F)F)c1 (stereo not drawn) [Compound 116, 3-({8-fluoro-1-[4-methoxy-2-(trifluoromethyl)phenyl]pyrrolo[1,2-d][1,2,4]triazin-4-yl}amino)pyrrolidin-2-one] | 10 to 100
Cc1ccc(-c2nnc(N[C@H]3CCCC[C@@H]3O)n3cccc23)c(OC(F)F)c1 [Compound 80, (1S,2S)-2-({1-[2-(difluoromethoxy)-4-methylphenyl]pyrrolo[1,2-d][1,2,4]triazin-4-yl}amino)cyclohexan-1-ol] | 10 to 100
FC(F)(F)c1ccc(-c2nnc(Nc3cc[nH]n3)n3cncc23)c(C(F)(F)F)c1 [Compound 285, 1-[2,4-bis(trifluoromethyl)phenyl]-N-(1H-pyrazol-3-yl)imidazo[1,5-d][1,2,4]triazin-4-amine] | 10 to 100
Cc1cc(C(F)(F)F)cc(OC(F)F)c1-c1nnc(N[C@@H]2CCCN(C)C2)n2cccc12 [Compound 49, 1-[2-(difluoromethoxy)-6-methyl-4-(trifluoromethyl)phenyl]-N-[(3R)-1-methylpiperidin-3-yl]pyrrolo[1,2-d][1,2,4]triazin-4-amine] | 10 to 100
COc1ccc(-c2nnc(NC3CCCN(C)C3=O)n3cncc23)c(CC(F)(F)F)c1 (stereo not drawn) [Compound 330, 3-({1-[4-methoxy-2-(2,2,2-trifluoroethyl)phenyl]imidazo[1,5-d][1,2,4]triazin-4-yl}amino)-1-methylpiperidin-2-one] | 10 to 100
COc1ccc(-c2nnc(NCc3cccc(O)c3)n3cncc23)c(OC(F)(F)F)c1 [Compound 233, 3-[{{1-[4-methoxy-2-(trifluoromethoxy)phenyl]imidazo[1,5-d][1,2,4]triazin-4-yl}amino)methyl]phenol] | 1 to 10
COc1ccc(-c2nnc(N[C@@H]3CCOC[C@H]3O)n3cncc23)c(CC(F)(F)F)c1 [Compound 249, (3S,4R)-4-({1-[4-methoxy-2-(2,2,2-trifluoroethyl)phenyl]imidazo[1,5-d][1,2,4]triazin-4-yl}amino)oxan-3-ol] | 1 to 10
O[C@@H]1CCCC[C@H]1Nc1nnc(-c2ccc(C(F)(F)F)cc2OC(F)F)c2cccn12 [Compound 110, (1R,2R)-2-({1-[2-(difluoromethoxy)-4-(trifluoromethyl)phenyl]pyrrolo[1,2-d][1,2,4]triazin-4-yl}amino)cyclohexan-1-ol] | 1 to 10
O[C@H]1CCOC[C@@H]1Nc1nnc(-c2ccc(C(F)(F)F)cc2CC(F)(F)F)c2cncn12 [Compound 400, (3S,4S)-3-({1-[2-(2,2,2-trifluoroethyl)-4-(trifluoromethyl)phenyl]imidazo[1,5-d][1,2,4]triazin-4-yl}amino)oxan-4-ol] | 10 to 100
COc1ccc(-c2nnc(N[C@H]3C[C@@](C)(O)C3)n3ccc(F)c23)c(OC(F)F)c1 [Compound 58, (1s,3s)-3-({1-[2-(difluoromethoxy)-4-methoxyphenyl]-8-fluoropyrrolo[1,2-d][1,2,4]triazin-4-yl}amino)-1-methylcyclobutan-1-ol] | 10 to 100
O[C@H]1CCCC[C@@H]1Nc1nnc(-c2ccc(C(F)(F)F)cc2OC(F)(F)F)c2cccn12 [Compound 121, (1S,2S)-2-({1-[2-(trifluoromethoxy)-4-(trifluoromethyl)phenyl]pyrrolo[1,2-d][1,2,4]triazin-4-yl}amino)cyclohexan-1-ol] | 10 to 100
C[C@]1(O)C[C@@H](Nc2nnc(-c3ccc(C(F)(F)F)cc3OC(F)(F)F)c3cccn23)C1 [Compound 123, (1s,3s)-1-methyl-3-({1-[2-(trifluoromethoxy)-4-(trifluoromethyl)phenyl]pyrrolo[1,2-d][1,2,4]triazin-4-yl}amino)cyclobutan-1-ol] | 1 to 10
Cc1ccc(-c2nnc(NC(C)c3cccc(O)c3)n3cccc23)c(OC(F)F)c1 (stereo not drawn) [Compound 100, 3-[1-({1-[2-(difluoromethoxy)-4-methylphenyl]pyrrolo[1,2-d][1,2,4]triazin-4-yl}amino)ethyl]phenol] | 1 to 10
Cc1ccc(-c2nnc(NC3CCNC3=O)n3cncc23)c(CC(F)(F)F)c1 (stereo not drawn) [Compound 288, 3-({1-[4-methyl-2-(2,2,2-trifluoroethyl)phenyl]imidazo[1,5-d][1,2,4]triazin-4-yl}amino)pyrrolidin-2-one] | 1 to 10
COc1ccc(-c2nnc(N[C@@H]3CCOC3)n3cccc23)c(OC(F)(F)F)c1 [Compound 68, 1-[4-methoxy-2-(trifluoromethoxy)phenyl]-N-[(3R)-oxolan-3-yl]pyrrolo[1,2-d][1,2,4]triazin-4-amine] | 10 to 100
COc1ccc(-c2nnc(N[C@@H]3CCCN(CCO)C3)n3ccc(F)c23)c(OC(F)(F)F)c1 [Compound 51, 2-[(3R)-3-({8-fluoro-1-[4-methoxy-2-(trifluoromethoxy)phenyl]pyrrolo[1,2-d][1,2,4]triazin-4-yl}amino)piperidin-1-yl]ethan-1-ol] | 1 to 10

Other lines, results leading:

IC50 [nM] | SMILES
< 1 | CN1CCC[C@@H](Nc2nnc(-c3ccc(Br)cc3OC(F)F)c3cncn23)C1 [Compound 195, 1-[4-bromo-2-(difluoromethoxy)phenyl]-N-[(3R)-1-methylpiperidin-3-yl]imidazo[1,5-d][1,2,4]triazin-4-amine]
1 to 10 | O[C@@H]1COCC[C@H]1Nc1nnc(-c2ccc(C(F)(F)F)cc2C(F)(F)F)c2cncn12 [Compound 273, (3S,4R)-4-({1-[2,4-bis(trifluoromethyl)phenyl]imidazo[1,5-d][1,2,4]triazin-4-yl}amino)oxan-3-ol]
< 1 | CC(Nc1nnc(-c2ccc(C(F)(F)F)cc2CC(F)(F)F)c2cncn12)c1cccc(O)c1 (stereo not drawn) [Compound 266]
1 to 10 | OCCN1CCC[C@@H](Nc2nnc(-c3ccc(Br)cc3C(F)(F)F)c3cncn23)C1 [Compound 201, 2-[(3R)-3-({1-[4-bromo-2-(trifluoromethyl)phenyl]imidazo[1,5-d][1,2,4]triazin-4-yl}amino)piperidin-1-yl]ethan-1-ol]
1 to 10 | Cc1ccc(-c2nnc(NC(C)c3cccc(O)c3)n3cncc23)c(CC(F)(F)F)c1 (stereo not drawn) [Compound 297, 3-[1-({1-[4-methyl-2-(2,2,2-trifluoroethyl)phenyl]imidazo[1,5-d][1,2,4]triazin-4-yl}amino)ethyl]phenol]
1 to 10 | C[C@]1(O)C[C@@H](Nc2nnc(-c3ccc(C(F)(F)F)cc3OC(F)(F)F)c3ccnn23)C1 [Compound 397, (1s,3s)-1-methyl-3-({4-[2-(trifluoromethoxy)-4-(trifluoromethyl)phenyl]pyrazolo[1,5-d][1,2,4]triazin-7-yl}amino)cyclobutan-1-ol]
1 to 10 | CN1CCC[C@@H](CNc2nnc(-c3ccc(C(F)(F)F)cc3CC(F)(F)F)c3cccn23)C1 [Compound 146, N-{[(3S)-1-methylpiperidin-3-yl]methyl}-1-[2-(2,2,2-trifluoroethyl)-4-(trifluoromethyl)phenyl]pyrrolo[1,2-d][1,2,4]triazin-4-amine]
1 to 10 | Cc1ccc(-c2nnc(N[C@H]3C[C@@](C)(O)C3)n3nc(C)cc23)c(CC(F)(F)F)c1 [Compound 390, (1s,3s)-1-methyl-3-({2-methyl-4-[4-methyl-2-(2,2,2-trifluoroethyl)phenyl]pyrazolo[1,5-d][1,2,4]triazin-7-yl}amino)cyclobutan-1-ol]
1 to 10 | OC[C@H]1C[C@@H](Nc2nnc(-c3ccc(C(F)(F)F)cc3OC(F)(F)F)c3cncn23)C1 [Compound 255, [(1s,3s)-3-({1-[2-(trifluoromethoxy)-4-(trifluoromethyl)phenyl]imidazo[1,5-d][1,2,4]triazin-4-yl}amino)cyclobutyl]methanol]
< 1 | CCN1CC[C@@H](O)[C@@H](Nc2nnc(-c3ccc(OC(F)F)cc3OC(F)(F)F)c3cccn23)C1 [Compound 171, (3S,4R)-3-({1-[4-(difluoromethoxy)-2-(trifluoromethoxy)phenyl]pyrrolo[1,2-d][1,2,4]triazin-4-yl}amino)-1-ethylpiperidin-4-ol]
1 to 10 | CCN1CCC[C@@H](Nc2nnc(-c3ccc(OC)cc3Cl)c3c(F)ccn23)C1 [Compound 82, 1-(2-chloro-4-methoxyphenyl)-N-[(3R)-1-ethylpiperidin-3-yl]-8-fluoropyrrolo[1,2-d][1,2,4]triazin-4-amine]
1 to 10 | Cc1cc2c(-c3ccc(C(F)(F)F)cc3OC(F)F)nnc(N[C@H]3C[C@@](C)(O)C3)n2n1 [Compound 380, (1s,3s)-3-({4-[2-(difluoromethoxy)-4-(trifluoromethyl)phenyl]-2-methylpyrazolo[1,5-d][1,2,4]triazin-7-yl}amino)-1-methylcyclobutan-1-ol]
< 1 | Cc1ccc(-c2nnc(N[C@@H]3CCCN(C)C3)n3cccc23)c(CC(F)(F)F)c1 [Compound 159, N-[(3R)-1-methylpiperidin-3-yl]-1-[4-methyl-2-(2,2,2-trifluoroethyl)phenyl]pyrrolo[1,2-d][1,2,4]triazin-4-amine]
1 to 10 | CCN1CCC[C@@H](Nc2nnc(-c3ccc(OC)cc3Cl)c3cc(C)nn23)C1 [Compound 374, 4-(2-chloro-4-methoxyphenyl)-N-[(3R)-1-ethylpiperidin-3-yl]-2-methylpyrazolo[1,5-d][1,2,4]triazin-7-amine]
< 1 | OCCN1CCC[C@@H](Nc2nnc(-c3ccc(C(F)(F)F)cc3OCF)c3cccn23)C1 [Compound 173, 2-[(3R)-3-({1-[2-(fluoromethoxy)-4-(trifluoromethyl)phenyl]pyrrolo[1,2-d][1,2,4]triazin-4-yl}amino)piperidin-1-yl]ethan-1-ol]
1 to 10 | COc1ccc(-c2nnc(N[C@H]3C[C@@](C)(O)C3)n3cccc23)c(OC(F)(F)F)c1 [Compound 9, (1s,3s)-3-({1-[4-methoxy-2-(trifluoromethoxy)phenyl]pyrrolo[1,2-d][1,2,4]triazin-4-yl}amino)-1-methylcyclobutan-1-ol]
< 1 | CCN1CCC[C@@H](Nc2nnc(-c3ccc(OC)cc3OC(F)F)c3cccn23)C1 [Compound 166, 1-[2-(difluoromethoxy)-4-methoxyphenyl]-N-[(3R)-1-ethylpiperidin-3-yl]pyrrolo[1,2-d][1,2,4]triazin-4-amine]
